Patent publication US4590284A, “Pineapple ketone 1'-alkoxyalkyl derivatives” (Hercules Incorporated, priority 1985, dated 1986)
Read-outs that look alike come from different tables or passages of the source. One block for each molecule: values may come before it.

Legend:
[1] = fragranced soaps, six months of storage; cited from earlier work
[2] = Water solubility; assay type: physicochemical; conditions: in words
[3] = 0 min
Protocol: (§1) The disappearance of both compounds is measured by gas chromatography using a six foot long, one-eighth inch diameter column having 15 percent by weight polyethylene glycol with an average molecular weight of 20,000 (Carbowax-20 M, Trademark) on particles of 80 by 100 mesh diatomaceous earth (Chromasorb W, Trademark) and using helium feed at 28 cc. per minute while heating from 100° to 210° C. at 8° per minute. Ten percent solutions of each compound in toluene are stirred at equal rates in the presence of air at ambient temperatures.

[4] = cited from earlier work
[5] = physchem; conditions: toluene
Protocol: as §1

SMILES: CC=Cc1ccc(O)c(OC)c1 [isoeugenol]
stability to discoloration [1]: causes discoloration

water solubility [2]: water soluble
% Remaining [3]: 100%
remaining at 15 h [5]: 24%
remaining at 41 h [5]: 18%
remaining at 115 h [5]: 6%
remaining at 138 h [5]: 4%
SMILES: CC1=C(O)C(=O)C(C)O1 (stereo not drawn) [Pineapple Ketone, 2,5-dimethyl-4-hydroxy-3(2H)-furanone]
half-life ([4]; pH 4): 120 days
half-life ([4]; pH 7): 12 days

% Remaining [3]: 100%
remaining at 17 h [5]: 95%
remaining at 41 h [5]: 93%
remaining at 116 h [5]: 44%
remaining at 137 h [5]: 38%
SMILES: CCOC(C)OC1=C(C)OC(C)C1=O (stereo not drawn) [2,5-Dimethyl-4-[(1'-ethoxy)ethoxy]-3(2H)-furanone]

SMILES: CC=Cc1ccc(OC(C)OCC)c(OC)c1 (stereo not drawn) [1'-ethoxyethyl ether of isoeugenol]
stability to discoloration [1]: stable to discoloration
